System: human patient-derived xenograft (PDX) derived from a human ovarian tumor (CTG-1180, Champions Oncology)
Experiment: In vivo xenograft efficacy (human ovarian tumor PDX) in tumor-bearing mice
Design: species or system Athymic Nude-Foxn1nu mice
Experimental: A nanoparticle composition comprising Compound 1 and albumin from Example 2 was tested in an in vivo xenograft efficacy model in tumor-bearing mice. Athymic Nude-Foxn1nu mice were implanted subcutaneously with a human patient-derived xenograft (PDX) derived from a human ovarian tumor (CTG-1180, Champions Oncology). Tumors were allowed grow to ˜200 cubic mm before commencement of treatment (day 0). Lyophilized nanoparticle formulations of Compound 1 were rehydrated in 5% dextrose in sterile water (D5W) immediately prior to dosing. Mice were then dosed intravenously with various concentrations of gemcitabine, nanoparticle formulation of Compound 1, or vehicle control (dissolved directly in D5W and dosed in mg of gemcitabine/compound 1 per kg of mouse body weight abbreviated as mpk) once weekly for 4 weeks (mice were dosed on day 0, 7, 14, and 21 with no treatments thereafter). […] Tumor volume was assessed by caliper measurement using the following formula: Tumor volume=width^2×length×0.52. Tumor growth inhibition (TGI) at day 28 was assessed using the following formula: […]. […]

Nc1ccn([C@@H]2O[C@H](CO)[C@@H](O)C2(F)F)c(=O)n1 [gemcitabine, 2′,2′-difluoro-2′-deoxycytidine]
Tumor growth inhibition (TGI) at day 28 (40 mpk (152 μmol/kg) intravenously once weekly for 4 weeks (day 0, 7, 14, 21)): 88% | Tumor growth inhibition (TGI) at day 28 (100 mpk (380 μmol/kg) intravenously once weekly for 4 weeks (day 0, 7, 14, 21)): 98%
